From publication PMC2365111, “Cytotoxicity of Poly(Phenolic)Sulfonates and Their Sodium Salts in L1210 Lymphoid Leukemia Cells” (Metal-Based Drugs, 1998)

Experiments:
L1210 d[NTP] pool levels = experiment: Deoxyribonucleoside triphosphate pool levels; type: cell-based, mouse; conditions: 100 μM, 60 min, N=6
Text: (§1) CYTOTOXlCITY OF POLY(PHENOLIC)SULFONATES AND THEIR SODIUM SALTS IN L1210 LYMPHOID LEUKEMIA CELLS Fei Wang, Amy E. Warren, Cheryl R. Barnes and Iris H. Hall* Division of Medicinal Chemistry and Natural Products University of North Carolina Chapel Hill, N.C. […] Because ofthese properties it was surmised that these poly(phenolic)sulfonated compounds may have antineoplastic activity. METHODS Source of Compounds Test compounds were supplied by GeneLabs, Inc. [Redwood City, CA [Table 1]. Radioisotopes were obtained from New England Nuclear [Dupont, Boston, MA]. Substrates and co-factors were purchased om Sigma Chemical Co., [St Louis, MO]. Pentosan sulfate and other antineoplastic standards were obtained from Sigma Chemical Co. Tumor lines were obtained from American Type Culture Collection [Rockville, MD]. 147 Vol. 5, No. 3, 1998 Cytotoxicity ofSodium Poly(Phenolic)Sulfonates in L1210 Lymphoid Leukemia Cells Table 1 Structures of Poly(phenolic)sulfonate Compounds O2R" n Compound R' R" n MW # G1-2041 H OH 8 1489.46 G1-2029 H OH 6 1117.09 G1-2030 H OH 4 744.73 GI-2021 CH3 ONa 8 1777.5 G1-2057 CH3 ONa 4 888.75 GI-2158 CH3 ONa 6 1333.13 GI-2063 OCH3 ONa 8 2001.65 G1-2042 OAc ONa 8 2017.73 Cytotoxicity Poly(phenolic)sulfonates were tested for cytotoxic activity by homogenizing drug in 0.05% Tween 80/H20 to give a mg/ml stock concentration. These solutions were sterilized by passing them through an acrodisc ([…]). The following cell lines were maintained by literature techniques: murine L1210 lymphoid leukemia, P-388 lymphocytic leukemia, rat UMR 106 osteosarcoma, human Tmolt3 acute lymphoblastic T cell leukemia, HUT-8 lymphoma, HeLa-S suspended cervical carcinoma, HeLa solid cervical carcinoma, KB epidermoid nasopharynx, A431 epidermoid carcinoma, colorectal adenocarcinoma SW480, HCT-8 ileocecal adenocarcinoma, lung bronchogenic MB-9812, A549 lung carcinoma, and glioma HS683. Geran et al.'s protocol was used to assess the cytotoxicity of the compounds and standards in each cell line. Cell numbers were determined by the trypan blue exclusion technique. Solid tumor cytotoxicity was determined by Leibovitz et al. 's method utilizing crystal violeeOH and read at 562 nm (Molecular Devices). Values for cytotoxicity were expressed as EDs0 g/ml, i.e. the concentration ofthe compound inhibiting 50% ofcell growth. A value of less than 4 µg/ml was required for significant activity ofgrowth inhibition. Incorporation Studies Incorporation of labeled precursors into 3H-DNA, 3H -RNA and 3H -protein for 10 L1210 cells was obtained. The concentration response for inhibition of DNA, RNA and protein synthesis of the compounds at 25, 50 and 100 l.tM was determined for 60 min incubations. Incorporation of 14C -glycine (53.0 mCi/mmol) into purines was obtained by the method of Cadman et al.[12]. Incorporation of 4C- formate (53.0 mCi/mmol) into pyrimidines was determined by the method of Christopherson et al.[13]. Enzyme Assays Inhibition of various enzyme activities was performed by first preparing the appropriate L1210 cell homogenates or subcellular fractions, then adding the drug to be tested during the enzyme assay. For the concentration response studies, inhibition of enzyme activity was determined at 25, 50 and 100 l.tM of compounds G1-2021, G1-2029, GI-2041 and G1-2063 after 60 min incubations. DNA polymerase Ot activity was determined in cytoplasmic extracts isolated by Eichler et aL's method. The DNA polymerase assay was described by Sedwick et al.[15] using 3H-TTP. Messenger-, ribosomal- and transfer-RNA polymerase enzymes were isolated with different concentrations of ammonium sulfate; individual RNA polymerase activities were determined using 3H -UTP 16,17]. Ribonucleoside reductase activity was measured using 4C -CDP with dithioerythritol. The deoxyribonucleotides 4C -dCDP were separated from the ribonucleotides by TLC on PEI plates. […]

PRPP amido transferase = biological target: T1, PRPP amido transferase (Mus musculus, UniProt Q8CIH9); experiment: PRPP amidotransferase activity, L1210; type: biochemical; conditions: 60 min, N=6
T1 construct: preparing the appropriate L1210 cell homogenates or subcellular fractions; endogenous in cells; host or cells: L1210 murine lymphoid leukemia cells, homogenate or subcellular fraction
T1 sequence (Q8CIH9 12-517): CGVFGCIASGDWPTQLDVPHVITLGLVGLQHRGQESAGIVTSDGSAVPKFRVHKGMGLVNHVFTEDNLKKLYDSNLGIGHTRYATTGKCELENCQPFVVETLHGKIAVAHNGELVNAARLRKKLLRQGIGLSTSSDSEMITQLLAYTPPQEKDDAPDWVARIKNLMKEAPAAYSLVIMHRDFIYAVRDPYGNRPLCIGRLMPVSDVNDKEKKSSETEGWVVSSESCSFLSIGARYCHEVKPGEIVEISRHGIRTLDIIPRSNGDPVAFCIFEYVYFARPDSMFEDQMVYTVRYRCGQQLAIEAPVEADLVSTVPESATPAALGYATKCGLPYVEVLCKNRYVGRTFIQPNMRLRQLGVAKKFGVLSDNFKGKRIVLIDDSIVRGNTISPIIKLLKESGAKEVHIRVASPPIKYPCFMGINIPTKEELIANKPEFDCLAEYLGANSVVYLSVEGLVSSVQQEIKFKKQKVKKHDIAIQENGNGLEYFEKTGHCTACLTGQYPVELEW
Text: as §1, with “Enzyme Assays Inhibition of various enzyme activities was performed by first preparing the appropriate L1210 cell homogenates or subcellular fractions, then adding the drug to be tested during the enzyme assay. For the concentration response studies, inhibition of enzyme activity was determined at 25, 50 and 100 l.tM of compounds G1-2021, G1-2029, GI-2041 and G1-2063 after 60 min incubations.” left out, “The DNA polymerase assay was described by Sedwick et al.[15] using 3H-TTP.” left out, “dithioerythritol.” for “dithioerythritol. The deoxyribonucleotides 4C -dCDP were separated from the ribonucleotides by TLC on PEI plates.”

DNA polymerase α = biological target: T2, DNA polymerase α (Mus musculus, UniProt P33609); experiment: DNA polymerase alpha activity, L1210 cytoplasmic extracts; type: biochemical; conditions: for DNA polymerase α: 60 min, N=6; for DNA polymerase activity time course, in words: 50 μM over 2 hr
T2 construct: endogenous in cells; host or cells: L1210 murine lymphoid leukemia cells, cytoplasmic extract
T2 sequence (P33609 whole entry): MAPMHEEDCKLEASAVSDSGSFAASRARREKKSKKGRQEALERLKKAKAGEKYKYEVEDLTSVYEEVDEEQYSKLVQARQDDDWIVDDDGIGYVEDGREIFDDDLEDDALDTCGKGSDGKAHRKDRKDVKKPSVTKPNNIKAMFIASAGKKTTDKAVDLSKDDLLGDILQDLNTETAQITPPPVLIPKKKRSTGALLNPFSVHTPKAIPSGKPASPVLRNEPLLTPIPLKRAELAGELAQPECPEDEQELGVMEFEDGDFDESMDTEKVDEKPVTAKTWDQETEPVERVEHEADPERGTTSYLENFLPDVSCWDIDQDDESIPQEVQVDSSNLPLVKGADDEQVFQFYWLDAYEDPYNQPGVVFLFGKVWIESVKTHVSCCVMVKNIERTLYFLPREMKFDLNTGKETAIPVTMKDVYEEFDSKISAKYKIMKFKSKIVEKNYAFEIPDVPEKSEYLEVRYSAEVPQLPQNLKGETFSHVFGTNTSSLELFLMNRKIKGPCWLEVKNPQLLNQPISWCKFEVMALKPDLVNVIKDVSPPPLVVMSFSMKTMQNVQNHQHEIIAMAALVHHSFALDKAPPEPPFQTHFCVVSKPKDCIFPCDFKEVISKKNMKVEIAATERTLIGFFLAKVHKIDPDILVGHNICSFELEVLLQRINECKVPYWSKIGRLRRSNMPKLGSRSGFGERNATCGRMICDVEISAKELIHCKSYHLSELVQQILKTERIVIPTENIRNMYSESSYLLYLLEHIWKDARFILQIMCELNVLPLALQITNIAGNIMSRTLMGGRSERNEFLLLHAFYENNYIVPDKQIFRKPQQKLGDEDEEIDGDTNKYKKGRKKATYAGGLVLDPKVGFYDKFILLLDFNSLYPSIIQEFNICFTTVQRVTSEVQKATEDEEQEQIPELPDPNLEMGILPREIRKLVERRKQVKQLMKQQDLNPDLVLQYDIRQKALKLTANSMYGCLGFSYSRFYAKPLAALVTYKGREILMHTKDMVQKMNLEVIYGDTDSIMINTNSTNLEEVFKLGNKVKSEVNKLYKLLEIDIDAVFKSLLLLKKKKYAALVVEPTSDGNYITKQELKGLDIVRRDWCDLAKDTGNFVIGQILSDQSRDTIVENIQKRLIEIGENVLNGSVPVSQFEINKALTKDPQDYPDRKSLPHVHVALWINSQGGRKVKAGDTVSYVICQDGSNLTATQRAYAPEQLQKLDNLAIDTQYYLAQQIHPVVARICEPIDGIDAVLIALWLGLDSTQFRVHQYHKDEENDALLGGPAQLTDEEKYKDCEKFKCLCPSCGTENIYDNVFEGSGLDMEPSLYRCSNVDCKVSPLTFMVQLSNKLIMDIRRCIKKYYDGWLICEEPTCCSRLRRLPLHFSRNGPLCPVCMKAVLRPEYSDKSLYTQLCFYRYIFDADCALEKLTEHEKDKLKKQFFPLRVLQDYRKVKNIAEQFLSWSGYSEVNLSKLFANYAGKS
T2 sequence (P33611 whole entry partner): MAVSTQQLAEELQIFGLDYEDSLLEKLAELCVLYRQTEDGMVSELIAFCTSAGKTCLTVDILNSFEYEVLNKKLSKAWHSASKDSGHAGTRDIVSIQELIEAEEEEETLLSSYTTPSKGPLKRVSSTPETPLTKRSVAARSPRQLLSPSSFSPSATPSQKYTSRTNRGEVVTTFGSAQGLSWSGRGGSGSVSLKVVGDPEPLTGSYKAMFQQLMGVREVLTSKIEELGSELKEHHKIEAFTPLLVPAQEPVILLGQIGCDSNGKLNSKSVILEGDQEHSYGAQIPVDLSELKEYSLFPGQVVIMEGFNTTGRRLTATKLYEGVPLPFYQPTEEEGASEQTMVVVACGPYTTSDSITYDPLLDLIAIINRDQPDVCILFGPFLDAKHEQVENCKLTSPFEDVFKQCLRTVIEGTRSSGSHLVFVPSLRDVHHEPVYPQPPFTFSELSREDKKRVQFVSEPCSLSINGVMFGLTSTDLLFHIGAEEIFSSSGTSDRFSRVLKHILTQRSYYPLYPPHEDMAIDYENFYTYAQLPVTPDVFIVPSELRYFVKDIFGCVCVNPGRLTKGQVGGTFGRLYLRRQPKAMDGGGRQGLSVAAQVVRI
T2 sequence (P20664 whole entry partner): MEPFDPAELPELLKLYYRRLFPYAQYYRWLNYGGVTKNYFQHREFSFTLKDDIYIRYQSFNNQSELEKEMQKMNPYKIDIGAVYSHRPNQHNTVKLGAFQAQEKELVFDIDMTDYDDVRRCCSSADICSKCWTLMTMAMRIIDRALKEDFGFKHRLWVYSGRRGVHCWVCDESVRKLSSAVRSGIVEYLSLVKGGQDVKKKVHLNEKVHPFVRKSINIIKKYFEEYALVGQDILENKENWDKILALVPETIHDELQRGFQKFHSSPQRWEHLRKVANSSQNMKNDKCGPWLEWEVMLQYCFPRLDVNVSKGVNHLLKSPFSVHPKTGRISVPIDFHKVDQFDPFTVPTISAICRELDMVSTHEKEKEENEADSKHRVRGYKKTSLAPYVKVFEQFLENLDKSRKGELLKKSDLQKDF
T2 sequence (P33610 whole entry partner): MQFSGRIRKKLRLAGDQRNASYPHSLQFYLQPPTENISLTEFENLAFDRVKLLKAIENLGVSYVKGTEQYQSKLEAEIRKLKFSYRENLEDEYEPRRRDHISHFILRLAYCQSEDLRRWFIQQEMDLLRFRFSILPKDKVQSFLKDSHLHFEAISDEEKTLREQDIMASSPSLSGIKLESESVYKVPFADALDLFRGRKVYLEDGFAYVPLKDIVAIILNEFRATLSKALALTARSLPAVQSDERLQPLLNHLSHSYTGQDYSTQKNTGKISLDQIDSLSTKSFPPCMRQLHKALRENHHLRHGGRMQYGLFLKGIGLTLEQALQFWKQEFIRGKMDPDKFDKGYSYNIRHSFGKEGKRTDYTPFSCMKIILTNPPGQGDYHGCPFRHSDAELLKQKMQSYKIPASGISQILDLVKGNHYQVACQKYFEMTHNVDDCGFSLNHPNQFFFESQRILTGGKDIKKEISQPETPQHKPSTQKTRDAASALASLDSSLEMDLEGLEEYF
Text: as §1

Dihydrofolate reductase = biological target: T3, Dihydrofolate reductase (Mus musculus, UniProt P00375); experiment: Dihydrofolate reductase activity, L1210; type: biochemical; conditions: for Dihydrofolate reductase: 60 min, N=6
T3 construct: preparing the appropriate L1210 cell homogenates or subcellular fractions; endogenous in cells; host or cells: L1210 murine lymphoid leukemia cells, homogenate or subcellular fraction
T3 sequence (P00375 1-187): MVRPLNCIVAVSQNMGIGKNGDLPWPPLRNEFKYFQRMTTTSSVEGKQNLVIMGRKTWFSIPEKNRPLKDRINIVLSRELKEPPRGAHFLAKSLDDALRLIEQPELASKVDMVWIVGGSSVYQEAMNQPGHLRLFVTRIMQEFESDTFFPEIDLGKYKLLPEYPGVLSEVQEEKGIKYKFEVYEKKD
Text: as §1

Thymidine kinase = Thymidine kinase activity, L1210; type: biochemical, mouse; conditions: 60 min, N=6
Text: as §1

Thymidylate synthetase = biological target: T4, Thymidylate synthetase (Mus musculus, UniProt P07607); experiment: Thymidylate synthetase activity, L1210; type: biochemical; conditions: 60 min, N=6
T4 construct: preparing the appropriate L1210 cell homogenates or subcellular fractions; endogenous in cells; host or cells: L1210 murine lymphoid leukemia cells, homogenate or subcellular fraction
T4 sequence (P07607 whole entry): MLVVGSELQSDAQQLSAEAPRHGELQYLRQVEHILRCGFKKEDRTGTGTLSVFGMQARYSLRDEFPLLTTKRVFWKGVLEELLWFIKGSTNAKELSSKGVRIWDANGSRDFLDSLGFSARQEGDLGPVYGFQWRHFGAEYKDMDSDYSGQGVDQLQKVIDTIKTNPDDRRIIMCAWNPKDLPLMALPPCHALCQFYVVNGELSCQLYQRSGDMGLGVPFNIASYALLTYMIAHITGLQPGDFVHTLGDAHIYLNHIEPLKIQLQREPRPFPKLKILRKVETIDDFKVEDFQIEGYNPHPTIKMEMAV
Text: as §1

L1210 protein synthesis = experiment: Incorporation of labeled precursor into protein; type: cell-based, mouse; conditions: 60 min, N=6
Text: as §1

L1210 DNA synthesis = experiment: Incorporation of labeled precursor into DNA; type: cell-based, mouse; conditions: 60 min, N=6
Text: as §1

[1] = test system: L1210 de novo pyrimidine synthesis; experiment: 14C-formate incorporation into pyrimidines; type: cell-based, mouse; conditions: 60 min, N=6
Text: as §1

rRNA polymerase = biological target: T5, rRNA polymerase (Mus musculus, UniProt O35134); experiment: Ribosomal-RNA polymerase activity, L1210; type: biochemical; conditions: 60 min, N=6
T5 construct: Messenger-, ribosomal- and transfer-RNA polymerase enzymes were isolated with different concentrations of ammonium sulfate; endogenous in cells; host or cells: L1210 murine lymphoid leukemia cells, ammonium sulfate fraction
Text: as §1

[2] = test system: Thymidine diphosphate kinase; experiment: TDP kinase activity, L1210; type: biochemical, mouse; conditions: 60 min, N=6
Text: as §1

| SMILES | d(ATP) (L1210 d[NTP] pool levels) | d(GTP) (L1210 d[NTP] pool levels) | d(TTP) (L1210 d[NTP] pool levels) | PRPP amido transferase (PRPP amido transferase; 50 μM) | DNA polymerase α (DNA polymerase α; 25 μM) | DNA polymerase activity time course, in words (DNA polymerase α) | Dihydrofolate reductase (Dihydrofolate reductase; 100 μM) | Thymidine kinase (Thymidine kinase; 25 μM) | Thymidine kinase (Thymidine kinase; 50 μM) | Thymidylate synthetase (Thymidylate synthetase; 25 μM) | Thymidylate synthetase (Thymidylate synthetase; 50 μM) | Thymidylate synthetase (Thymidylate synthetase; 100 μM) | Protein synthesis (L1210 protein synthesis; 50 μM) | Protein synthesis (L1210 protein synthesis; 100 μM) | DNA synthesis (L1210 DNA synthesis; 25 μM) | DNA synthesis (L1210 DNA synthesis; 50 μM) | DNA synthesis (L1210 DNA synthesis; 100 μM) | Pyrimidine de novo synthesis ([1]; 25 μM) | rRNA polymerase (rRNA polymerase; 25 μM) | Thymidine diphosphate kinase ([2]; 100 μM) | further results |
| --- | --- | --- | --- | --- | --- | --- | --- | --- | --- | --- | --- | --- | --- | --- | --- | --- | --- | --- | --- | --- | --- |
| O=S(=O)(O)c1cc2c(O)c(c1)Cc1cc(S(=O)(=O)O)cc(c1O)Cc1cc(S(=O)(=O)O)cc(c1O)Cc1cc(S(=O)(=O)O)cc(c1O)Cc1cc(S(=O)(=O)O)cc(c1O)Cc1cc(S(=O)(=O)O)cc(c1O)Cc1cc(S(=O)(=O)O)cc(c1O)Cc1cc(S(=O)(=O)O)cc(c1O)C2 [GI-2041] | 62+ 5% of Control | 74+5% of Control | 89+6% of Control | 38+3% of Control | 85+5% of Control | returned to normal at 90 min | 92+5% of Control | 116+5% of Control | 104+5% of Control | 105+5% of Control | 103+6% of Control | 92+5% of Control | 70+3% of Control | 70+3% of Control | 98+6% of Control | 84+5% of Control | 33+5% of Control | 112+6% of Control | 112+5% of Control | 54+3% of Control | PRPP amido transferase (PRPP amido transferase; 100 μM): 10+2% of Control; Dihydrofolate reductase (Dihydrofolate reductase; 25 μM): 105+5% of Control; Pyrimidine de novo synthesis ([1]; 50 μM): 97+5% of Control; Thymidine diphosphate kinase ([2]; 25 μM): 89+5% of Control; Thymidine diphosphate kinase ([2]; 50 μM): 64+5% of Control |
| O=S(=O)(O)c1cc2c(O)c(c1)Cc1cc(S(=O)(=O)O)cc(c1O)Cc1cc(S(=O)(=O)O)cc(c1O)Cc1cc(S(=O)(=O)O)cc(c1O)Cc1cc(S(=O)(=O)O)cc(c1O)Cc1cc(S(=O)(=O)O)cc(c1O)C2 [GI-2029] | 68+5% of Control |  | 98+5% of Control | 30+3% of Control | 70+3% of Control | activity remained suppressed at 60 and 90 min | 127+6% of Control | 105+6% of Control | 104+6% of Control | 92+5% of Control | 89+6% of Control |  | 80+3% of Control | 71+3% of Control |  | 78+3% of Control |  | 99+6% of Control | 115+6% of Control | 27+3% of Control | d(CTP) (L1210 d[NTP] pool levels): 96+ 5% of Control; DNA polymerase α (DNA polymerase α; 50 μM): 60+3% of Control; DNA polymerase α (DNA polymerase α; 100 μM): 44+3% of Control; Dihydrofolate reductase (Dihydrofolate reductase; 50 μM): 108+5% of Control; Pyrimidine de novo synthesis ([1]; 50 μM): 96+ 5% of Control; Pyrimidine de novo synthesis ([1]; 100 μM): 93+7% of Control; rRNA polymerase (rRNA polymerase; 50 μM): 102+4% of Control; rRNA polymerase (rRNA polymerase; 100 μM): 107+5% of Control; Thymidine diphosphate kinase ([2]; 25 μM): 57+3% of Control |
| COc1c2cc(S(=O)(=O)[O-])cc1Cc1cc(S(=O)(=O)[O-])cc(c1OC)Cc1cc(S(=O)(=O)[O-])cc(c1OC)Cc1cc(S(=O)(=O)[O-])cc(c1OC)Cc1cc(S(=O)(=O)[O-])cc(c1OC)Cc1cc(S(=O)(=O)[O-])cc(c1OC)Cc1cc(S(=O)(=O)[O-])cc(c1OC)Cc1cc(S(=O)(=O)[O-])cc(c1OC)C2.[Na+].[Na+].[Na+].[Na+].[Na+].[Na+].[Na+].[Na+] [GI-2021] | 65+ 4% of Control | 79+4% of Control | 88+6% of Control | 61+4% of Control | 76+5% of Control | activity remained suppressed at 60 and 90 min | 76+4% of Control | 112+7% of Control | 96+5% of Control | 97+6% of Control | 88+5% of Control | 82+4% of Control | 64+4% of Control | 59+3% of Control | 105+6% of Control | 77+5% of Control | 39+5% of Control | 98+6% of Control | 122+7% of Control | 26+3% of Control | d(CTP) (L1210 d[NTP] pool levels): 67+5% of Control; PRPP amido transferase (PRPP amido transferase; 25 μM): 62+5% of Control; DNA polymerase α (DNA polymerase α; 100 μM): 52+4% of Control; dihydrofolate reductase activity reduced (Dihydrofolate reductase; 100 μM after hr): 24%; Thymidine kinase (Thymidine kinase; 100 μM): 76+4% of Control; Protein synthesis (L1210 protein synthesis; 25 μM): 80+4% of Control; Pyrimidine de novo synthesis ([1]; 100 μM): 88+5% of Control; rRNA polymerase (rRNA polymerase; 50 μM): 120+5% of Control; rRNA polymerase (rRNA polymerase; 100 μM): 123+4% of Control; Thymidine diphosphate kinase ([2]; 50 μM): 32+3% of Control |
